Experimental data from publication PMC4578888, “The Validation of Nematode-Specific Acetylcholine-Gated Chloride Channels as Potential Anthelmintic Drug Targets” (PLoS ONE, 2015).

Biological target: T1, AVR-15 (glutamate-gated chloride channel subunit) (Caenorhabditis elegans, UniProt O17548)
T1 construct: homomeric AVR-15, untagged and with a fluorescent protein tag in the intracellular loop, expressed in Xenopus laevis oocytes
T1 sequence (O17548 21-478): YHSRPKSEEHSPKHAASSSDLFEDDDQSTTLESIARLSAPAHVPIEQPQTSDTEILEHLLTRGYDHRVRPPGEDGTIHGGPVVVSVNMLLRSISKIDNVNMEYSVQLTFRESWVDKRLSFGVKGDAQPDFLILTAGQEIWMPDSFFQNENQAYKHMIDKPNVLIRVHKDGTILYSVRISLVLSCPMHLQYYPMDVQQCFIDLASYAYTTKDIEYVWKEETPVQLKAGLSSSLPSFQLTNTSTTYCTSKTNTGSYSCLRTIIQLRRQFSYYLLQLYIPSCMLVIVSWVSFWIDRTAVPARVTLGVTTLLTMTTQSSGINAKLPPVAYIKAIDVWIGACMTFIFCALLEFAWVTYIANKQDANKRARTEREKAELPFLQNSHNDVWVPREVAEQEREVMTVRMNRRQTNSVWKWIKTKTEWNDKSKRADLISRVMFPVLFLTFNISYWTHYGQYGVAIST
Assay: two-electrode voltage clamp in Xenopus oocytes, dose–response curve
Assay type: cell-based

`N[C@@H](CCC(=O)O)C(=O)O` [glutamate] was tested, and the “two-electrode voltage clamp in Xenopus oocytes, dose-response curve” value was “Dose–response curve with the normalized maximal response on the y-axis plotted against the glutamate concentration”.
